Consider 3 compounds from patent US20040023994A1 (priority 2002, published 2004).

One may read the IC50 as the concentration that inhibits the measured activity by half. Low readings indicate greater potency, high ones weaker potency.

One series deals with A-498 cells. Nature of the series: MTT cytotoxicity assay. It is filed as cell-based, human. The settings on record: for IC50: A-498, 72 h incubation, MTT. On the procedure: (§1) Preliminary studies examining the in vitro cytotoxicity of cis-AVTP and trans-AVTG as compared to the parent drugs, were carried out using the 3-[4,5-dimethylthiazol-2-yl]-2,5-diphenyl tetrazolium bromide (MTT) cytotoxicity assay.
For orientation: Tetrazolium assays rely on reduction of a dye to a coloured formazan, in cell work by metabolically active cells.

Another series deals with ACHN cells. The experiment in a line: MTT cytotoxicity assay. The series is classed as cell-based, human. The settings on record: for IC50: 72 h incubation, MTT. On the procedure: as §1

SMILES strings stand for the structures. “Also recorded” adds a separate entry of the source.

On to `Cn1cnc([N+](=O)[O-])c1Sc1ncnc2nc[nH]c12` [AZA, azathioprine], for which the IC50 in the series on A-498 cells (Homo sapiens, A498) was found to be 50.2 ± 10.4 µM; in the series on ACHN cells (Homo sapiens), 22.1 µM.
For `CC(=O)C=Cc1ccccc1` [PBO, phenylbutenone], the figures for the IC50 with A-498 cells and in the series with ACHN cells were 252 ± 149 µM and 62.3 ± 10.7 µM, respectively.
For `O=C(O)/C=C\Sc1ncnc2[nH]cnc12` [PTA, cis-3-(9H-purin-6-ylthio)acrylic acid], the cytotoxicity result in the series with A-498 cells (A-498, within the concentration range examined (up to 500 μM)) is on record as “little cytotoxicity; also recorded: not cytotoxic”; in the series on ACHN cells (within the concentration range examined (up to 500 μM)), “little cytotoxicity; also recorded: not cytotoxic”.
